{"source": "patent US8377961B2", "about": "“Cyclic-alkylamine derivatives as inhibitors of the interaction between MDM2 and P53” (Janssen Pharmaceutica N.V., priority 2006, dated 2013)", "key": {"p53 in A2780 cells": {"system": "p53 in A2780 cells", "experiment": "p53 ELISA (capacity to preserve p53 in A2780 cells)", "assay_type": "cell-based", "settings": "lowest dose giving at least 140% of the value for p53 present in the control; A2780 cells treated with compound for 16 hours", "protocol": "The capacity of the compounds to preserve p53 in A2780 cells was measured with the p53 enzyme linked immunosorbent assay. The p53 assay is a “sandwich” enzyme immunoassay employing two polyclonal antibodies. A polyclonal antibody, specific for the p53 protein, has been immobilized onto the surface of the plastic wells. Any p53 present in the sample to be assayed will bind to the capture antibody. The biotinylated detector polyclonal antibody also recognizes p53 protein, and will bind to any p53, which has been retained by the capture antibody. The detector antibody, in turn, is bond by horseradish peroxidase-conjugated streptavidin. The horseradish peroxidase catalyses the conversion of the chromogenic substrate o-phenylene diamine, the intensity of which is proportional to the amount of p53 protein bond to the plate. The colored reaction product is quantified using a spectrophotometer. Quantitation is achieved by the construction of a standard curve using known concentrations of purified recombinant HIS tagged p53 protein (see example C.1.).\nA2780 cells (ATCC) were cultivated in RPMI 1640 supplemented with 10% fetal calf serum (FCS), 2 mM L-glutamine and gentamycin at 37° C. in a humidified incubator with 5% CO2.\nA2780 cells were seeded at 20.000 cells per well in a 96 well plate, cultured for 24 hours and treated with compound for 16 hours at 37° C. in a humidified incubator. After incubation, the cells were washed once with phosphate-buffered saline and 30 μl, per well, low salt RIPA buffer (20 mM tris, pH7.0, 0.5 mM EDTA, 1% Nonidet P40, 0.5% DOC, 0.05% SDS, 1 mM PMSF, 1 μg/ml aprotinin and 0.5 μ/ml leupeptin) was added. Plates were placed on ice for 30 minutes to complete the lysis. p53 protein was detected in de lysates by using the sandwich ELISA, described below.\nHigh binding polystyrene EIA/RIA 96 well plates (Costar 9018) were coated with the capture antibody pAb1801 (Abcam ab28-100) at a concentration of 1 μg/ml in coating buffer (0.1 M NaHCO3 pH8.2), 50 μl per well. The antibody was allowed to adhere overnight at 4° C. Coated plates were washed once with phosphate-buffered saline (PBS)/0.05% Tween 20 and 300 μl of blocking buffer (PBS, 1% bovine serum albumins (BSA)) was added, for an incubation period of 2 hours at room temperature. Dilutions of purified recombinant HIS tagged p53 protein, ranging from 3-200 ng/ml, were made in blocking buffer and used as standards.\nPlates were washed twice with PBS/0.05% Tween 20 and blocking buffer or standards were added at 80 μl/well. To the standards, 20 μl of lysis buffer was added. The samples were added to the other wells at 20 μl lysate/well. After an overnight incubation at 4° C., plates were washed twice with PBS/0.05% Tween 20. Aliquots of 100 μl secondary polyclonal antibody p53(FL-393) (Tebubio, sc-6243) at a concentration of 1 μg/ml in blocking buffer were added to each well and allowed to adhere for 2 hours at room temperature. Plates were washed three times with PBS/0.05% Tween 20. Detection antibody anti-rabbit HRP (sc-2004, Tebubio) at 0.04 μg/ml in PBS/1% BSA was added and incubated for 1 hour at room temperature. Plates were washed three times with PBS/0.05% Tween 20 and 100 μl of substrate buffer was added (substrate buffer was prepared shortly before use by adding 1 tablet of 10 mg o-phenylene diamine (OPD) from Sigma and 125 μl 3% H2O2 to 25 ml OPD buffer: 35 mM citric acid, 66 mM Na2HPO4, pH5.6). After 5 to 10 minutes, colour reaction was stopped by adding 50 μl stop buffer (1 M H2SO4) per well. The absorbance at dual wavelengths of 490/655 nm was measured using a Biorad micro plate reader and the results were then analyzed.\nFor each experiment, controls (containing no drug) and a blank incubation (containing no cells or drugs) were run in parallel. The blank value was subtracted from all control and sample values. For each sample, the value of p53 (in absorbance units) was expressed as the percentage of the value for p53 present in the control. […]"}, "U87MG cells": {"system": "U87MG cells", "experiment": "Proliferation assay (MTT-based) on U87MG tumour cells", "assay_type": "cell-based", "settings": "Homo sapiens, U-87 MG, 96 h, 4 days of incubation", "protocol": "Cellular activity of the compounds of formula (I) was determined on U87MG tumour cells using a colorimetric assay for cell toxicity or survival (see example C.2).\nU87MG cells are human glioblastoma cells with wild type p53. In this cell line MDM2 tightly controls p53 expression.\nAll compounds tested were dissolved in DMSO and further dilutions were made in culture medium. Final DMSO concentrations never exceeded 0.1% (v/v) in cell proliferation assays. Controls contained U87MG cells and DMSO without compound and blanks contained DMSO but no cells.\nU87MG cells were seeded in 96-well cell culture plates at 3000 cells/well/100 μl. 24 hours later, medium was changed and compound and/or solvent were added to a final volume of 200 μl. Following 4 days of incubation, medium was replaced by 200 μl fresh medium and cell growth was assessed using a MTT-based assay. Therefore, 25 μl of the MTT solution (0.5% MTT research grade from Serva in phosphate-buffered saline) was added to each well and the cells were further incubated for 2 hours at 37° C. The medium was then carefully aspirated and the blue MTT-formazan product was dissolved by adding to each well 25 μl 0.1M glycin and 100 μl DMSO. The plates were shaken for another 10 min on a micro plate shaker before reading absorbance at 540 nm by a Biorad micro plate reader.\nWithin an experiment, the results for each experimental condition are the mean of 3 replicate wells. For initial screening purposes, compounds were tested at a single fixed concentration of 10^−5 M. For active compounds, the experiments were repeated to establish full concentration-response curves. For each experiment, controls (containing no drug) and a blank incubation (containing no cells or drugs) were run in parallel. The blank value was subtracted from all control and sample values. For each sample, the mean value for cell growth (in absorbance units) was expressed as a percentage of the mean value for cell growth of the control. When appropriate, IC50-values (concentration of the drug, needed to reduce cell growth to 50% of the control) were computed using probit analysis for graded data (Finney, D. J., Probit Analyses, 2nd Ed. Chapter 10, Graded Responses, Cambridge University Press, Cambridge 1962). Herein the effects of test compounds are expressed as pIC50 (the negative log value of the IC50-value) (see table F-2).\nIn some of the experiments the proliferation assay was adapted for and used in 384-well culture plates (see table F-2)."}, "[1]": {"settings": "96-well plates, read-out: cell proliferation pIC50 96 well (converted)"}}, "note": "Read-outs that look alike come from different tables or passages of the source.", "data": [{"compound": "c1ccc2c(CCNc3ccc4c(c3)CCN4c3ccncc3)c[nH]c2c1", "note": "[Compound 1]", "values": [{"measurement": "A2780 p53-elisa LAD", "setting": "p53 in A2780 cells", "value": 0.1, "unit": "µM"}, {"measurement": "IC50", "setting": "U87MG cells; [1]", "value": 10, "unit": "nM"}]}, {"compound": "c1ccc2c(N3CCc4cc(NCCc5c[nH]c6ccccc56)ccc43)ccnc2c1", "note": "[Compound 2]", "values": [{"measurement": "A2780 p53-elisa LAD", "setting": "p53 in A2780 cells", "value": 1, "unit": "µM"}, {"measurement": "IC50", "setting": "U87MG cells; [1]", "value": 1700, "unit": "nM"}]}, {"compound": "COC(=O)c1cc(N2CCc3cc(NCCc4c[nH]c5ccccc45)ccc32)ccn1", "note": "[Compound 3]", "values": [{"measurement": "A2780 p53-elisa LAD", "setting": "p53 in A2780 cells", "value": 1, "unit": "µM"}, {"measurement": "IC50", "setting": "U87MG cells; [1]", "value": 4170, "unit": "nM"}]}, {"compound": "OCc1cc(N2CCc3cc(NCCc4c[nH]c5ccccc45)ccc32)ccn1", "note": "[Compound 4]", "values": [{"measurement": "A2780 p53-elisa LAD", "setting": "p53 in A2780 cells", "value": 0.3, "unit": "µM"}, {"measurement": "IC50", "setting": "U87MG cells; [1]", "value": 158, "unit": "nM"}]}, {"compound": "OC1CCc2c(N3CCc4cc(NCCc5c[nH]c6ccccc56)ccc43)ccnc21", "note": "(stereo not drawn) [Compound 5]", "values": [{"measurement": "A2780 p53-elisa LAD", "setting": "p53 in A2780 cells", "value": 0.3, "unit": "µM"}, {"measurement": "IC50", "setting": "U87MG cells; [1]", "value": 295, "unit": "nM"}]}, {"compound": "CC1(C)CN(c2ccncc2)c2ccc(NCCc3c[nH]c4ccccc34)cc21", "note": "[Compound 6]", "values": [{"measurement": "A2780 p53-elisa LAD", "setting": "p53 in A2780 cells", "value": 3, "unit": "µM"}, {"measurement": "IC50", "setting": "U87MG cells; 384-well culture plates, read-out: cell proliferation pIC50 384 well (converted)", "value": 295, "unit": "nM"}]}]}
